pIC50, pKi: −log10 of the molar value.
Assays:
[1] = target: recombinant human IDO1 (rhIDO1) (Homo sapiens, UniProt P14902); assay: Enzymatic assay of IDO1; assay type: biochemical
[2] = target: rhTDO2 (purified TDO2 enzyme) (Homo sapiens, UniProt P48775); assay: Enzymatic assay of TDO2; assay type: biochemical
[3] = target: human IDO1 in HEK 293 cells (Homo sapiens, UniProt P14902); assay: Cell-based assay of IDO1 activity; details: for inhibition of the cellular activity of IDO1: HEK 293 cells overexpressing human IDO1, kynurenine released, Fig. 2c
[4] = target: human TDO2 in HEK 293 cells (Homo sapiens, UniProt P48775); assay: Cell-based assay of TDO2 activity
[5] = target: T1, IDO1 (Homo sapiens, UniProt P14902); assay: biochemical; details: for mode of inhibition: L-tryptophan 7.5 μM to 30 μM, Fig. 4
[6] = target: T1, IDO1; assay: IDO1 absorbance spectra; assay type: binding; details: compound 20 μM, rhIDO1 3 μM; for absorbance of ferric-IDO1 at 404 nm: compared with control; for absorbance of ferrous-IDO1 at 428 nm: sodium dithionite
[7] = system: HEK 293 cells; assay: Cell viability assay; assay type: cell-based, human; details: conditions used for the kynurenine assay

recombinant human IDO1 (rhIDO1), sequence (P14902 whole entry): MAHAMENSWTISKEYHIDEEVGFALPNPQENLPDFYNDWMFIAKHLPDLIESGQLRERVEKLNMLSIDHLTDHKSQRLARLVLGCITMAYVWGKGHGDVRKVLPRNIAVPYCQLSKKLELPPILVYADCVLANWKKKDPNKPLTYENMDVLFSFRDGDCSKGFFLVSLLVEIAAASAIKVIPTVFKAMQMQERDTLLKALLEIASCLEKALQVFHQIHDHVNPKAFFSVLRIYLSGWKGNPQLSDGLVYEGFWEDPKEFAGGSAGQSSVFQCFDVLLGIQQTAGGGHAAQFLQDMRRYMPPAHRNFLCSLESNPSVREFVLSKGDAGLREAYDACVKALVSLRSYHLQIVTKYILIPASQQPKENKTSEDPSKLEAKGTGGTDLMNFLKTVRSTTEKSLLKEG
T1 sequence (P14902 whole entry): as above
human IDO1 in HEK 293 cells, sequence (P14902 whole entry): as above

| SMILES | pIC50 [1] | pIC50 [2] | pIC50 [3] | inhibition of the cellular activity of IDO1 [3] | pIC50 [4] | pKi [5] | mode of inhibition [5] | absorbance of ferric-IDO1 at 404 nm [6] | absorbance of ferrous-IDO1 at 428 nm [6] | effect on cell viability (CCK8) [7] | inhibition at 20 µM ([1]; read-out: IDO1 inhibitory activity of tanshinone derivatives) |
| --- | --- | --- | --- | --- | --- | --- | --- | --- | --- | --- | --- |
| CC(C)=CC[C@@H](O)C1=CC(=O)c2c(O)ccc(O)c2C1=O [Compound 7, shikonin] | 6.01 | 5.30 | 5.66 | 101.8% | 5.85 | 5.85 | uncompetitive inhibition | decreased | remained unchanged | slightly reduced cell viability |  |
| Cc1cccc2c3c(ccc12)C1=C(C(=O)C3=O)[C@@H](C)CO1 [Compound 8, dihydrotanshinone I] | 5.55 | 5.29 | 4.59 | 83.6% | 4.88 | 5.55 | uncompetitive inhibition | decreased | remained unchanged | no effect on cell viability |  |
| C[C@H]1COC2=C1C(=O)C(=O)c1c2ccc2c1CCCC2(C)C [Compound B06F5, cryptotanshinone] |  |  |  |  |  |  |  |  |  |  | > 40% |
